Values quoted from earlier work in patent publication US20120064155A1, “ORAL PHARMACEUTICAL COMPOSITION FOR USE IN RESPIRATORY DISEASES” (LABORATORIOS SENOSIAIN S.A. DE C.V., priority 2009, published 2012).
Values after ≈ are worked out from the molar mass of the structure shown.

Assays:
[1] = after oral administration; approximately
[2] = system: plasma proteins

Row | bound to plasma proteins [2] [%] | water solubility [mg/mL] | Structure (SMILES) | start of antihistamine effect [1] [min]
1 | – | – | CCOC(=O)N1CCC(=C2c3ccc(Cl)cc3CCc3cccnc32)CC1 [Loratadine] | ≤ 30
2 | 95 | 100 (≈ 598 mM) | CNC[C@H](O)c1cccc(O)c1 [Phenylephrine] | –
